Among the data in patent US10793557B2, “Sting agonist compounds” (Merck Sharp & Dohme Corp., priority 2018, dated 2020) are EC50 and activation values, retold here.

One assay addresses T1, full-length HAQ STING (Homo sapiens, UniProt Q86WV6, G230A/H232R/R293Q/R71H).
T1 construct: AviTag (after GG linker) (C); HRV3C cleavage site (after GS linker) (C); HIS8 (C); made in house; host or cells: Trichoplusia ni (Hi-Five) insect cells infected with baculovirus (virus generated and amplified in Sf21 cells); used as a washed membrane preparation
In words: 3H-cGAMP filtration binding assay (HAQ STING). To be noted: competition with tritiated cGAMP, HAQ STING membrane. Summed up:
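Hi-Five (T. ni) membranes overexpressing the STING variant (2.2 ug/ml working) preincubated with compound 60 min at RT in PBS, then [3H]cGAMP (8 nM working stock) added for 60 min at RT. Bound radioactivity captured on GF/B filters and counted by scintillation; EC50 from 4-parameter fit of control-normalized activity.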

The target of a further assay is T2, full-length WT STING (Homo sapiens, UniProt Q86WV6, H232R).
T2 construct: AviTag (after gg linker) (C); HRV3C cleavage site (after gs linker) (C); HIS8 (C); made in house; host or cells: Trichoplusia ni (Hi-Five) insect cells infected with baculovirus (virus generated and amplified in Sf21 cells); used as a washed membrane preparation
T2 sequence (Q86WV6 with tags, fused parts or gaps H232R): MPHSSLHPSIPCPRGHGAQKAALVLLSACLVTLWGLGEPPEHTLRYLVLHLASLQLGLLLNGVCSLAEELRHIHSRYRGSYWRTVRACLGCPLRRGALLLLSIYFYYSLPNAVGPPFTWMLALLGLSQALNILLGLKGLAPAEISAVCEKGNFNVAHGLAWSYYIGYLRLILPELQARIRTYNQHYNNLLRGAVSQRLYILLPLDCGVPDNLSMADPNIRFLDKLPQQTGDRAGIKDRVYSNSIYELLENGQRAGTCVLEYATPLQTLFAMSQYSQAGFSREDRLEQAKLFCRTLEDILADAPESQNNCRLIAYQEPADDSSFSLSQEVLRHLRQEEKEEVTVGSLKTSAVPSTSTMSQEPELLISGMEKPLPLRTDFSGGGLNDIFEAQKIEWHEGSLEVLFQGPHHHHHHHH
In words: 3H-cGAMP filtration binding assay (WT STING). To be noted: competition with tritiated cGAMP, WT STING membrane. In short, it runs like this: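 EC50 values come from 4-parameter fits of remaining filter-bound tritium versus log concentration (10-point, 1:3 dilution). Insect-cell membranes carrying full-length WT STING were incubated 60 min at RT with compound and tritiated cGAMP (16 nM working stock) before filtration.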

Assay [1] relates to secretion of interferon-beta from THP1 cells. In words: IFN-β secretion in THP1 cell culture (5 h). It is filed as cell-based. To be noted: Homo sapiens, THP-1, 5 h, compound at 30 μM, 30 uM cGAMP = 100%, read-out: % Effect at 30 μM relative to 2′3′-cGAMP. In short, it runs like this: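 IFN-β in supernatant measured by AlphaLISA after a 5 h, 37 °C incubation of THP1 cells with compound (10 concentrations, 30000 down to 1.5 nM, 0.3% DMSO) in low-serum RPMI. Values scaled between DMSO and 30 uM cGAMP controls; 4-parameter curve fit yields EC50.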

T1 sequence (Q86WV6 with tags, fused parts or gaps R71H/G230A/H232R/R293Q): as the sequence (Q86WV6 with tags, fused parts or gaps H232R) above, with R71H, G230A, R293Q counted along it

Broadly, the EC50 is the concentration that produces a half-maximal response. A lower EC50 goes with a more potent agent. As to `COc1cc2sc(C(=O)C[C@H](C)C(=O)O)cc2c(F)c1OCCOc1c(OC)cc2sc(C(=O)C[C@H](C)C(=O)O)cc2c1F` [Example 50, (2S,2′S)-4,4′-((ethane-1,2-diylbis(oxy))bis(4-fluoro-6-methoxybenzo[b]thiophene-5,2-diyl))bis(2-methyl-4-oxobutanoic acid)], the EC50 on full-length HAQ STING and at full-length WT STING was 1 nM in each case. Further, in assay [1], the activation at 30 µM amounted to 44%.
With `COc1cc2sc(C(=O)C[C@H](C)C(=O)O)cc2cc1OCCCOc1cc2sc(C(=O)C[C@H](C)C(=O)O)cc2cc1OC` [Example 51], the half-maximal effective concentration (EC50) on full-length HAQ STING was 3 nM; at full-length WT STING, 8 nM. In addition, the activation at 30 µM in assay [1] was 43%.
Consider `COc1cc2sc(C(=O)C[C@H](C)C(=O)O)cc2cc1OCCCOc1cc2cc(C(=O)C[C@H](C)C(=O)O)sc2cc1OC` [Example 52, (2S,2′S)-4,4′-((propane-1,3-diylbis(oxy))bis(6-methoxybenzo[b]thiophene-5,2-diyl))bis(2-methyl-4-oxobutanoic acid)], for which the 50% effective concentration (EC50) is 2 nM on full-length HAQ STING and 4 nM on full-length WT STING. Further, the activation at 30 µM in assay [1] amounted to 53%.
For `COc1cc2cc(C(=O)C[C@H](C)C(=O)O)sc2cc1OCCOc1ccc2sc(C(=O)CCC(=O)O)cc2c1` [Example 53, (S)-4-(6-(2-((2-(3-carboxypropanoyl)benzo[b]thiophen-5-yl)oxy)ethoxy)-5-methoxybenzo[b]thiophen-2-yl)-2-methyl-4-oxobutanoic acid], in that order: 146 nM, 713 nM and 23%.
Turning to `COc1cc2sc(C(=O)C[C@H](C)C(=O)O)cc2cc1OCCOc1ccc2sc(C(=O)CCC(=O)O)cc2c1` [Example 54, (S)-4-(5-(2-((2-(3-carboxypropanoyl)benzo[b]thiophen-5-yl)oxy)ethoxy)-6-methoxybenzo[b]thiophen-2-yl)-2-methyl-4-oxobutanoic acid], the results for the half-maximal effective concentration (EC50) at full-length HAQ STING and on full-length WT STING were 804 nM and 3080 nM, respectively. In addition, the activation at 30 µM in assay [1] came to 9%.
Take `COc1cc2sc(C(=O)C[C@H](C)C(=O)O)cc2cc1OCCCOc1ccc2sc(C(=O)CCC(=O)O)cc2c1` [Example 55, (S)-4-(5-(3-((2-(3-carboxypropanoyl)benzo[b]thiophen-5-yl)oxy)propoxy)-6-methoxybenzo[b]thiophen-2-yl)-2-methyl-4-oxobutanoic acid]: the EC50 amounted to 14 nM at full-length HAQ STING and 48 nM on full-length WT STING. Besides, the activation at 30 µM in assay [1] turned out to be 53%.
For `COc1cc2sc(C(=O)C[C@H](C)C(=O)O)cc2cc1OCCOc1ccc2cc(C(=O)CCC(=O)O)sc2c1` [Example 56, (S)-4-(5-(2-((2-(3-carboxypropanoyl)benzo[b]thiophen-6-yl)oxy)ethoxy)-6-methoxybenzo[b]thiophen-2-yl)-2-methyl-4-oxobutanoic acid], in that order: 1070 nM, 3130 nM and 30%.
As for `COc1cc2sc(C(=O)C[C@H](C)C(=O)O)cc2cc1OCCCOc1nc2cc(C(=O)C[C@H](C)C(=O)O)sc2cc1OC` [Example 58, (S)-4-(5-(3-((2-((S)-3-carboxybutanoyl)-6-methoxybenzo[b]thiophen-5-yl)oxy)propoxy)-6-methoxythieno[3,2-b]pyridin-2-yl)-2-methyl-4-oxobutanoic acid], the EC50 on full-length HAQ STING and at full-length WT STING was 1 nM in each case. Besides, the activation at 30 µM in assay [1] was 46%.
For the compound `COc1cc2sc(C(=O)C[C@H](C)C(=O)O)cc2nc1OCCCOc1c(OC)cc2sc(C(=O)CC(C)(C)C(=O)O)cc2c1F` [Example 59, (S)-4-(5-(3-((2-(3-carboxybutanoyl)-6-methoxythieno[3,2-b]pyridin-5-yl)oxy)propoxy)-4-fluoro-6-methoxybenzo[b]thiophen-2-yl)-2,2-dimethyl-4-oxobutanoic acid], the EC50 on full-length HAQ STING was found to be 1 nM; on full-length WT STING it was 2 nM. The activation at 30 µM in assay [1] came out at 18%.
For `COc1cc2sc(C(=O)C[C@H](C)C(=O)O)cc2cc1CCNc1cc2cc(C(=O)C[C@H](C)C(=O)O)sc2cc1OC` [Example 60, (2S)-4-{5-[2-({2-[(3S)-3-carboxybutanoyl]-6-methoxy-1-benzothiophen-5-yl}amino)ethyl]-6-methoxy-1-benzothiophen-2-yl}-2-methyl-4-oxobutanoic acid], in that order: 19 nM, 67 nM and 106%.
For `COc1cc2sc(C(=O)C[C@H](C)C(=O)O)cc2cc1CCCNc1cc2cc(C(=O)C[C@H](C)C(=O)O)sc2cc1OC` [Example 61, (S)-4-(5-(3-((2-((S)-3-carboxybutanoyl)-6-methoxybenzo[b]thiophen-5-yl)amino)propyl)-6-methoxybenzo[b]thiophen-2-yl)-2-methyl-4-oxobutanoic acid], in that order: 33 nM, 327 nM and 62%.
For `COc1cc2sc(C(=O)CCC(=O)O)cc2c(F)c1OCCCOc1c(OC)cc2sc(C(=O)CCC(=O)O)cc2c1F` [Example 62, 4,4′-((propane-1,3-diylbis(oxy))bis(4-fluoro-6-methoxybenzo[b]thiophene-5,2-diyl))bis(4-oxobutanoic acid)], in that order: 2 nM, 2 nM and 106%.
Take `COc1cc2sc(C(=O)CCC(=O)O)cc2c(F)c1OCCOc1c(OC)cc2sc(C(=O)C[C@H](C)C(=O)O)cc2c1F` [Example 63, (S)-4-(5-(2-((2-(3-carboxypropanoyl)-4-fluoro-6-methoxybenzo[b]thiophen-5-yl)oxy)ethoxy)-4-fluoro-6-methoxybenzo[b]thiophen-2-yl)-2-methyl-4-oxobutanoic acid]: the concentration for a half-maximal effect (EC50) worked out at 1 nM on full-length HAQ STING and 4 nM on full-length WT STING. Moreover, the activation at 30 µM in assay [1] turned out to be 62%.
As for `COc1cc2sc(C(=O)CCC(=O)O)cc2c(F)c1OCCCOc1c(OC)cc2sc(C(=O)C[C@H](C)C(=O)O)cc2c1F` [Example 64, (S)-4-(5-(3-((2-(3-carboxypropanoyl)-4-fluoro-6-methoxybenzo[b]thiophen-5-yl)oxy)propoxy)-4-fluoro-6-methoxybenzo[b]thiophen-2-yl)-2-methyl-4-oxobutanoic acid], the 50% effective concentration (EC50) at full-length HAQ STING amounted to 2 nM; on full-length WT STING, 4 nM. In addition, in assay [1], the activation at 30 µM was 58%.
Consider `COc1cc2sc(C(=O)CCC(=O)O)cc2c(F)c1OCCOc1c(OC)cc2sc(C(=O)CCC(=O)O)cc2c1F` [Example 65, 4,4′-((ethane-1,2-diylbis(oxy))bis(4-fluoro-6-methoxybenzo[b]thiophene-5,2-diyl))bis(4-oxobutanoic acid)], for which the EC50 on full-length HAQ STING and at full-length WT STING was 1 nM each time. Besides, the activation at 30 µM in assay [1] was 105%.
With `COc1cc2sc(C(=O)C[C@@H](C)C(=O)O)cc2cc1OCCOc1c(OC)cc2sc(C(=O)C[C@H](C)C(=O)O)cc2c1F` [Example 66, (R)-4-(5-(2-((2-((S)-3-carboxybutanoyl)-4-fluoro-6-methoxybenzo[b]thiophen-5-yl)oxy)ethoxy)-6-methoxybenzo [b]thiophen-2-yl)-2-methyl-4-oxobutanoic acid], the EC50 at full-length HAQ STING stood at 4 nM; on full-length WT STING, 20 nM. In assay [1], the activation at 30 µM is 103%.
